Consider six molecules from ChEMBL document CHEMBL1155546, “Rapid synthesis of an array of trisubstituted urea-based soluble epoxide hydrolase inhibitors facilitated by a novel solid-phase method” (Bioorg Med Chem Lett, 2010).

For data set [1], the target named is T1, Bifunctional epoxide hydrolase 2 (Homo sapiens, UniProt P34913).
T1 sequence (P34913 whole entry): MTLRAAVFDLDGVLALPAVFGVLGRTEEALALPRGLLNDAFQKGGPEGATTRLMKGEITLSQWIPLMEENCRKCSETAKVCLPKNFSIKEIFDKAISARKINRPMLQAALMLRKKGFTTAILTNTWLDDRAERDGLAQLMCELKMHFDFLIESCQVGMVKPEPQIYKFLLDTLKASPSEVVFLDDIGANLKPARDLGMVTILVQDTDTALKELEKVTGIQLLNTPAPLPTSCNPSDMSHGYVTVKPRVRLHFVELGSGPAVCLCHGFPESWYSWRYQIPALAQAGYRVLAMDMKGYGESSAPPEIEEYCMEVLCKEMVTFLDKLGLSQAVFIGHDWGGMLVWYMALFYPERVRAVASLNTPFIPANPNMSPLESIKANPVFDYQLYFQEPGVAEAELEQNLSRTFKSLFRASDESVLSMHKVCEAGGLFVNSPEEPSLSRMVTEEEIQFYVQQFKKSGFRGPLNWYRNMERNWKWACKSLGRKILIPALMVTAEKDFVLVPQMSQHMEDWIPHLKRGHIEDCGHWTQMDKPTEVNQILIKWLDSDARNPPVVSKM
Description: Inhibition of human soluble epoxide hydrolase.

In a further data set the target is T2, Cytochrome P450 2J2 (Homo sapiens, UniProt P51589).
T2 sequence (P51589 whole entry): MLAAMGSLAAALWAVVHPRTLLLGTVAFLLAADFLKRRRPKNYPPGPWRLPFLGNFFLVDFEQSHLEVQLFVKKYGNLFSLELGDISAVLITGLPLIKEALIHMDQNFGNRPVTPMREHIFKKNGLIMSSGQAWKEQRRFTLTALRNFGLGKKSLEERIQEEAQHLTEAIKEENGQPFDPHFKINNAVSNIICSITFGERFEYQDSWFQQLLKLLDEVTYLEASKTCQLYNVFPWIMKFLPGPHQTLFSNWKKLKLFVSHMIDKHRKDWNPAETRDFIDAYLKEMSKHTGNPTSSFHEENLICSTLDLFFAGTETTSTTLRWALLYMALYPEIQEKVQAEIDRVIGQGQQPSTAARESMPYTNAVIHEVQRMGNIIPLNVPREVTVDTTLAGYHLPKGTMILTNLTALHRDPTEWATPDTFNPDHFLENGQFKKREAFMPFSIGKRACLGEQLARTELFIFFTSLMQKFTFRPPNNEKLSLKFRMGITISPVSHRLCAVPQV
Description: Inhibition of CYP2J2.

Data set [2] in a line: Half life in mouse liver microsome. The format is ADME. Conditions: liver microsomes. Background: Microsomes from liver hold many membrane-bound enzymes, among them those of drug oxidation.
Data set [3] in a line: Half life in human liver microsome. The format is ADME. Conditions: liver microsomes.
A further data set addresses Cytochrome P450 2C9 (Homo sapiens, UniProt P11712). The data set is described as follows: Inhibition of CYP2C9. The format is ADME.
In data set [4] the target is T1, Bifunctional epoxide hydrolase 2. Description: Inhibition of human soluble epoxide hydrolase assessed as [2-3H]trans-1,3-diphenyl propylene oxide hydrolysis by cellular assay.

Chain of Cytochrome P450 2C9 (P11712 whole entry): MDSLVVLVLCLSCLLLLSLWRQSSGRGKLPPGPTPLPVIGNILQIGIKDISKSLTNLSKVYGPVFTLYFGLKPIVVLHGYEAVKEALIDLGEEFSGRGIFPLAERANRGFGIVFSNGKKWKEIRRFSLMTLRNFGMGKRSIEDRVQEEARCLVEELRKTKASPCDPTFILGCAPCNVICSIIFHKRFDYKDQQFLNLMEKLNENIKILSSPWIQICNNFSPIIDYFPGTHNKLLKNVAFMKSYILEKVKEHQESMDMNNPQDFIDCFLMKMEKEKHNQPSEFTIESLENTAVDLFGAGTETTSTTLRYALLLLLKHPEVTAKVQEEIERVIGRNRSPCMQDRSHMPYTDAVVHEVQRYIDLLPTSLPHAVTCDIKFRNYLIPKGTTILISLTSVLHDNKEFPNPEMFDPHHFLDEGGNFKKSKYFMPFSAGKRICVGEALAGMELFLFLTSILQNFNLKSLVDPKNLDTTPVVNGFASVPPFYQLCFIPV

For `O=C(NCc1ccccc1OC(F)(F)F)N1CCC(c2ccncc2)C1` (stereo not drawn), the IC50 (in general, the midpoint of a concentration-inhibition curve) amounted to 0.007 µM in data set [1], 10 µM against Cytochrome P450 2J2, 0.3 µM on Cytochrome P450 2C9 and 0.076 µM in data set [4]. Also, the half-life (as a rule, the time needed for the level to fall by half in the phase considered) in data set [2] was found to be 42 min; in data set [3], 23 min.

As to `O=C(NCc1ccc(Cl)cc1Cl)N1CCC(Oc2ccncc2)CC1`, the half-inhibitory concentration (IC50) in data set [1] turned out to be 0.009 µM; against Cytochrome P450 2J2, 2.7 µM; against Cytochrome P450 2C9, 0.1 µM; in data set [4] it was 0.022 µM. Besides, the half-life in data set [2] came to 25 min; in data set [3], 42 min.

On to `O=C(NCc1ccccc1OC(F)(F)F)N1CCC(Oc2ncccn2)CC1`, for which the IC50 in data set [1] was determined as 0.004 µM; at Cytochrome P450 2J2, 2 µM; on Cytochrome P450 2C9 it was 10.2 µM; in data set [4] it was 0.04 µM. The figures for the half-life in data set [2] and in data set [3] were 10 min and 54 min, respectively.

With `O=C(NCCC(c1ccc(F)cc1)c1ccc(F)cc1)N1CCC(c2cnccn2)C1` (stereo not drawn), the IC50 in data set [1] was 0.003 µM; on Cytochrome P450 2C9 it was 8.1 µM; in data set [4], 0.004 µM. Also, the half-life in data set [2] and in data set [3] was 2 min throughout.

As to `O=C(NCc1ccccc1OC(F)(F)F)N1CCC(Oc2ccncc2)CC1`, the half-inhibitory concentration (IC50) in data set [1] is 0.014 µM; on Cytochrome P450 2J2, 10 µM; against Cytochrome P450 2C9, 0.8 µM. Also, the half-life in data set [2] was determined as 42 min; in data set [3], 34 min.

Take `O=C(NCCC(c1ccc(F)cc1)c1ccc(F)cc1)N1CCC(Oc2cnccn2)CC1`: the IC50 was 0.001 µM in data set [1], 2.9 µM on Cytochrome P450 2C9 and 0.013 µM in data set [4]. For the same molecule, the half-life in data set [2] is 2 min; in data set [3] it was 7 min.
